How the values were obtained:
Assay in all cases: relative viability (nuclei count vs DMSO), 5 days (fraction); higher = more cells survive
201T = test system: 201T
Procedure, shortened: (§1)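 Relative viability equals treated-well nuclei counts divided by vehicle-well nuclei counts. Counts came from 4× images of lung cancer cell lines grown in 1536-well plates for 5 days after pin-tool dosing on the day after seeding. Dosing used one drug alone or a fixed anchor-drug dose plus five library-drug doses (not always all listed) in √10 steps, and values are medians of duplicate plates.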

CAL-12T = test system: CAL-12T
Procedure, shortened: as §1

COR-L 105 = test system: COR-L 105
Procedure, shortened: as §1

EKVX = test system: EKVX
Procedure, shortened: as §1

EPLC-272H = test system: EPLC-272H
Procedure, shortened: as §1

H3255 = test system: H3255
Procedure, shortened: as §1

HCC-15 = test system: HCC-15
Procedure, shortened: as §1

HCC-44 = test system: HCC-44
Procedure, shortened: as §1

HCC-827 = test system: HCC-827
Procedure, shortened: as §1

HOP-62 = test system: HOP-62
Procedure, shortened: as §1

LCLC-103H = test system: LCLC-103H
Procedure, shortened: as §1

NCI-H1355 = test system: NCI-H1355
Procedure, shortened: as §1

NCI-H1437 = test system: NCI-H1437
Procedure, shortened: as §1

NCI-H1755 = test system: NCI-H1755
Procedure, shortened: as §1

NCI-H1793 = test system: NCI-H1793
Procedure, shortened: as §1

NCI-H2009 = test system: NCI-H2009
Procedure, shortened: as §1

NCI-H322M = test system: NCI-H322M
Procedure, shortened: as §1

NCI-H441 = test system: NCI-H441
Procedure, shortened: as §1

NCI-H520 = test system: NCI-H520
Procedure, shortened: as §1

NCI-H522 = test system: NCI-H522
Procedure, shortened: as §1

NCI-H596 = test system: NCI-H596
Procedure, shortened: as §1

NCI-H647 = test system: NCI-H647
Procedure, shortened: as §1

PC-3 [JPC-3] = test system: PC-3 [JPC-3]
Procedure, shortened: as §1

SK-LU-1 = test system: SK-LU-1
Procedure, shortened: as §1

UMC-11 = test system: UMC-11
Procedure, shortened: as §1

Nc1cccc2c1CN(C1CCC(=O)NC1=O)C2=O (centres undefined) [Lenalidomide] + CC(=O)Nc1cccc(-n2c(=O)n(C3CC3)c(=O)c3c(Nc4ccc(I)cc4F)n(C)c(=O)c(C)c32)c1 [Trametinib] (partner 0.02 µM)
relative viability (201T; first compound 0.253 µM): 0.719 | relative viability (201T; first compound 0.8 µM): 0.754 | relative viability (201T; first compound 2.53 µM): 0.762 | relative viability (201T; first compound 8 µM): 0.713 | relative viability (CAL-12T; first compound 0.253 µM): 0.371 | relative viability (CAL-12T; first compound 0.8 µM): 0.292 | relative viability (CAL-12T; first compound 2.53 µM): 0.431 | relative viability (CAL-12T; first compound 8 µM): 0.306 | relative viability (COR-L 105; first compound 0.253 µM): 0.493 | relative viability (COR-L 105; first compound 0.8 µM): 0.471 | relative viability (COR-L 105; first compound 2.53 µM): 0.462 | relative viability (COR-L 105; first compound 8 µM): 0.416 | relative viability (EKVX; first compound 0.253 µM): 0.391 | relative viability (EKVX; first compound 0.8 µM): 0.32 | relative viability (EKVX; first compound 2.53 µM): 0.432 | relative viability (EKVX; first compound 8 µM): 0.328 | relative viability (EPLC-272H; first compound 0.253 µM): 0.284 | relative viability (EPLC-272H; first compound 0.8 µM): 0.272 | relative viability (EPLC-272H; first compound 2.53 µM): 0.34 | relative viability (EPLC-272H; first compound 8 µM): 0.313 | relative viability (H3255; first compound 0.253 µM): 0.547 | relative viability (H3255; first compound 0.8 µM): 0.624 | relative viability (H3255; first compound 2.53 µM): 0.661 | relative viability (H3255; first compound 8 µM): 0.541 | relative viability (HCC-15; first compound 0.253 µM): 0.412 | relative viability (HCC-15; first compound 0.8 µM): 0.427 | relative viability (HCC-15; first compound 2.53 µM): 0.377 | relative viability (HCC-15; first compound 8 µM): 0.334 | relative viability (HCC-44; first compound 0.253 µM): 1.08 | relative viability (HCC-44; first compound 0.8 µM): 0.829 | relative viability (HCC-44; first compound 2.53 µM): 1.11 | relative viability (HCC-44; first compound 8 µM): 1.05 | relative viability (HCC-827; first compound 0.253 µM): 0.462 | relative viability (HCC-827; first compound 0.8 µM): 0.594 | relative viability (HCC-827; first compound 2.53 µM): 0.518 | relative viability (HCC-827; first compound 8 µM): 0.52 | relative viability (HOP-62; first compound 0.253 µM): 0.34 | relative viability (HOP-62; first compound 0.8 µM): 0.338 | relative viability (HOP-62; first compound 2.53 µM): 0.4 | relative viability (HOP-62; first compound 8 µM): 0.363 | relative viability (LCLC-103H; first compound 0.253 µM): 0.687 | relative viability (LCLC-103H; first compound 0.8 µM): 0.623 | relative viability (LCLC-103H; first compound 2.53 µM): 0.656 | relative viability (LCLC-103H; first compound 8 µM): 0.617 | relative viability (NCI-H1355; first compound 0.253 µM): 0.431 | relative viability (NCI-H1355; first compound 0.8 µM): 0.316 | relative viability (NCI-H1355; first compound 2.53 µM): 0.402 | relative viability (NCI-H1355; first compound 8 µM): 0.267 | relative viability (NCI-H1437; first compound 0.253 µM): 0.523 | relative viability (NCI-H1437; first compound 0.8 µM): 0.365 | relative viability (NCI-H1437; first compound 2.53 µM): 0.611 | relative viability (NCI-H1437; first compound 8 µM): 0.486 | relative viability (NCI-H1755; first compound 0.253 µM): 0.729 | relative viability (NCI-H1755; first compound 0.8 µM): 0.806 | relative viability (NCI-H1755; first compound 2.53 µM): 0.766 | relative viability (NCI-H1755; first compound 8 µM): 0.63 | relative viability (NCI-H1793; first compound 0.253 µM): 0.458 | relative viability (NCI-H1793; first compound 2.53 µM): 0.474 | relative viability (NCI-H1793; first compound 8 µM): 0.451 | relative viability (NCI-H2009; first compound 0.253 µM): 0.297 | relative viability (NCI-H2009; first compound 0.8 µM): 0.28 | relative viability (NCI-H2009; first compound 2.53 µM): 0.283 | relative viability (NCI-H2009; first compound 8 µM): 0.28 | relative viability (NCI-H322M; first compound 0.253 µM): 0.507 | relative viability (NCI-H322M; first compound 0.8 µM): 0.527 | relative viability (NCI-H322M; first compound 2.53 µM): 0.508 | relative viability (NCI-H322M; first compound 8 µM): 0.511 | relative viability (NCI-H441; first compound 0.253 µM): 0.484 | relative viability (NCI-H441; first compound 0.8 µM): 0.258 | relative viability (NCI-H441; first compound 2.53 µM): 0.623 | relative viability (NCI-H441; first compound 8 µM): 0.387 | relative viability (NCI-H520; first compound 0.253 µM): 0.732 | relative viability (NCI-H520; first compound 0.8 µM): 0.615 | relative viability (NCI-H520; first compound 2.53 µM): 0.835 | relative viability (NCI-H520; first compound 8 µM): 0.452 | relative viability (NCI-H522; first compound 0.253 µM): 0.813 | relative viability (NCI-H522; first compound 0.8 µM): 0.803 | relative viability (NCI-H522; first compound 2.53 µM): 0.725 | relative viability (NCI-H522; first compound 8 µM): 0.623 | relative viability (NCI-H596; first compound 0.253 µM): 0.73 | relative viability (NCI-H596; first compound 0.8 µM): 0.83 | relative viability (NCI-H596; first compound 2.53 µM): 0.938 | relative viability (NCI-H596; first compound 8 µM): 0.766 | relative viability (NCI-H647; first compound 0.253 µM): 0.47 | relative viability (NCI-H647; first compound 0.8 µM): 0.413 | relative viability (NCI-H647; first compound 2.53 µM): 0.691 | relative viability (NCI-H647; first compound 8 µM): 0.422 | relative viability (PC-3 [JPC-3]; first compound 0.253 µM): 0.705 | relative viability (PC-3 [JPC-3]; first compound 0.8 µM): 0.681 | relative viability (PC-3 [JPC-3]; first compound 2.53 µM): 0.731 | relative viability (PC-3 [JPC-3]; first compound 8 µM): 0.743 | relative viability (SK-LU-1; first compound 0.253 µM): 0.515 | relative viability (SK-LU-1; first compound 0.8 µM): 0.443 | relative viability (SK-LU-1; first compound 2.53 µM): 0.596 | relative viability (SK-LU-1; first compound 8 µM): 0.432 | relative viability (UMC-11; first compound 0.253 µM): 0.514 | relative viability (UMC-11; first compound 0.8 µM): 0.449 | relative viability (UMC-11; first compound 2.53 µM): 0.885 | relative viability (UMC-11; first compound 8 µM): 0.472
